Measured values reported in article PMC8901636, “Preclinical studies of Flonoltinib Maleate, a novel JAK2/FLT3 inhibitor, in treatment of JAK2^V617F-induced myeloproliferative neoplasms” (Blood Cancer Journal, 2022).

Tests used:
[1] = tested on: Molm-13; experiment: MTT assay for cell proliferation; assay type: cell-based; conditions: Homo sapiens; Molm-13; FLT3-ITD expression; MTT 72 h; read-out: IC50(μM) ± SD, tumor cell proliferation
Experimental: (§1) For in vitro inhibition assays, cells were seeded in 96-well culture plates with a density of 15,000–20,000 cells/well after the cells reached 70–90% confluence. […] MTT (3-(4, 5-dimethylthiazol-2-yl)-2, 5-diphenyltetrazolium bromide) (Cat. No. 1334GR001; BioFroxx) assay was conducted in order to examine viability. The IC50 values were fitted using GraphPad Prism 7.0.

[2] = tested on: Ba/F3-EPOR-JAK2^V617F cells; experiment: Ba/F3-EPOR-JAK2^V617F malignancy mouse model; conditions: 30 mg/kg bid p.o.
[3] = Bioavailability; conditions: rat, in vivo; rats; data not shown
[4] = tested on: JAK2^V617F; experiment: JAK2^V617F bone marrow transplantation (BMT) myelofibrosis model; assay type: in vivo, BALB/c mice; conditions: 30 mg/kg bid p.o.
[5] = tested on: Ba/F3-FLT3-ITD^D835V; experiment: MTT assay for cell proliferation; assay type: cell-based, Murine; conditions: Mus musculus; Ba/F3-FLT3-ITD^D835V; MTT 72 h; read-out: IC50(μM) ± SD, tumor cell proliferation
Experimental: as §1

[6] = tested on: Ba/F3-JAK2^V617F cells; experiment: Ba/F3-JAK2^V617F disease model
[7] = tested on: Ba/F3-FLT3-ITD; experiment: MTT assay for cell proliferation; assay type: cell-based, Murine; conditions: Mus musculus; Ba/F3-FLT3-ITD; MTT 72 h; read-out: IC50(μM) ± SD, tumor cell proliferation
Experimental: as §1

[8] = tested on: Ba/F3-EPOR-JAK2^V617F; experiment: MTT assay for cell proliferation; assay type: cell-based, Murine; conditions: Mus musculus; Ba/F3-EPOR-JAK2^V617F; MTT 72 h; read-out: IC50(μM) ± SD, tumor cell proliferation
Experimental: as §1

[9] = Bioavailability; conditions: dog, in vivo; dogs; data not shown
[10] = tested on: Ba/F3-JAK2^V617F; experiment: MTT assay for cell proliferation; assay type: cell-based, Murine; conditions: Mus musculus; Ba/F3-JAK2^V617F; MTT 72 h; read-out: IC50(μM) ± SD, tumor cell proliferation
Experimental: as §1

[11] = tested on: Ba/F3-FLT3-ITD^F691; experiment: MTT assay for cell proliferation; assay type: cell-based, Murine; conditions: Mus musculus; Ba/F3-FLT3-ITD^F691; MTT 72 h; read-out: IC50(μM) ± SD, tumor cell proliferation
Experimental: as §1

[12] = tested on: MV-4-11; experiment: MTT assay for cell proliferation; assay type: cell-based; conditions: Homo sapiens, MV4-11; MV-4-11; FLT3-ITD expression; MTT 72 h; read-out: IC50(μM) ± SD, tumor cell proliferation
Experimental: as §1

[13] = tested on: Ba/F3-JAK2^WT; experiment: MTT assay for cell proliferation; assay type: cell-based, Murine; conditions: Mus musculus; Ba/F3-JAK2^WT; IL-3-dependent growth; MTT 72 h; read-out: IC50(μM) ± SD, tumor cell proliferation
Experimental: as §1

[14] = tested on: Ba/F3-EPOR; experiment: MTT assay for cell proliferation; assay type: cell-based, Murine; conditions: Mus musculus; Ba/F3-EPOR; IL-3-dependent growth; MTT 72 h; read-out: IC50(μM) ± SD, tumor cell proliferation
Experimental: as §1

[15] = tested on: HEL; experiment: MTT assay for cell proliferation; assay type: cell-based; conditions: Homo sapiens, JAK2V617F, MTT 72 h, read-out: IC50(μM) ± SD, tumor cell proliferation
Experimental: as §1

With `Cc1cnc(Nc2ccc(OCCN3CCCC3)cc2)nc1Nc1cccc(S(=O)(=O)NC(C)(C)C)c1` [Fedratinib, reference compound] the IC50 [1] was 0.17 ± 0.01 µM, the “spleen suppression rate” value ([2]; 16 days) was -40.23% and the median survival time ([2]; vehicle 19 days) was 22 days. The bioavailability [3] was 19%, the inhibition of splenomegaly ([4]; figure prints it with a minus sign over Spleen Wight (mg)) was 90.56% and the median survival time ([4]; vehicle 133.5 days) was over 180 days. For the same molecule, the IC50 [5] was 0.37 ± 0.04 µM, the “inhibition of the spleen growth” value ([6]; 30 mg/kg bid p.o., 22 days, figure prints it with a minus sign over Spleen Weight (mg)) was 67.44% and the median survival ([6]; 30 mg/kg bid p.o., vehicle 25 days) was 28 days. For the same molecule, the “body weight during treatment” value ([6]; any dose) was “no obvious body weight decrease”, the IC50 [7] was 0.21 ± 0.05 µM and the IC50 [8] was 1.71 ± 0.04 µM. It also gave a bioavailability [9] of 37%, an IC50 [10] of 0.61 ± 0.13 µM and an IC50 [11] of 0.74 ± 0.15 µM. For the same molecule, the IC50 [12] was 0.26 ± 0.11 µM, the IC50 [13] was 0.68 ± 0.12 µM and the IC50 [14] was 0.97 ± 0.23 µM. It also gave an IC50 [15] of 0.77 ± 0.36 µM.
